Like-named read-outs stand apart in the source and are kept apart here.

Data set [1] deals with N-acetyl-felinine. Briefly: Determination of N-acetyl-felinine in rat urine by NMR. To be noted: for N-acetyl-felinine levels in urine: in a given time interval after stimulation. The data set is classed as in vivo, Sprague Dawley rats. As to the method: (§1) Urine samples were collected in metabolism cages at 0 to 4° C. (automatically refrigerated by a Tecniplast sampling/cooling unit) at the intervals given in the sampling schedule below into sample tubes containing 1 ml of an aqueous Cs-azide (1%) solution. Before aliquoting, urine volumes were determined.
(§2) Immediately after reaching the end of the sampling period, the volume was determined and the samples were centrifuged at 3000 u/min [500 g] for 10 min.
N-acetyl-felinine was identified in urine samples on basis of 1D and 2D NMR spectra. Spectra were acquired at 600.13 MHz on a Bruker AV 600 spectrometer and at 500.13 MHz on Bruker DRX-500 spectrometer. Urine samples were prepared and measured and the data evaluated as described elsewhere (Keun, H. C.; Ebbels, T. M. D.; Antti, H.; Bollard, M. E.; Beckonert, O.; Schlotterbeck, G.; Senn, H,; Niederhauser, U.; Holmes, E.; Lindon, J. C.; Nicholson, J. K. Chem. Res. Toxicol. 2002, 15, 1380-1386).
Aliquots of 400 microliter urine are transferred into well plates. For adjustment of urinary pH 200 microliter of buffer [ca. 0.2M Na2HPO4/NaH2PO4, ca. 1 mM TSP (3-trimethylsilyl-D4-propionic acid), ca. 3 mM sodium azide] is added to each well. Prepared well plates are centrifuged at ca. 3,000 rpm at 4° C. for 5-10 min to remove insoluble material.
^1H NMR spectra for Metabonomic analysis (e.g. at 500 Mhz, 64 k data points, 12019.2 Hz spectral width) were measured at 300K. The water resonance were suppressed by use of standard pulse-sequences (e.g noesyprld, irradiation for 2 s relaxation delay and during 100 ms mixing time). For each sample as many transients were added as is needed to provide spectra high enough in signal to noise. Fourier transformation was done by use of a matched window function (e.g. lb=1) followed by (automatic or manual) phasing and base-line correction. Referencing was done with respect to TSP added (defined as 0.0 ppm). Acquisition and processing of spectra was performed with Bruker XWinNMR 3.5 software.
Each spectrum recorded was reduced in size for simplified statistical analysis (e.g. For NMR spectra recorded according to the standard protocol 245 variables will be calculated by equidistant integration between 0.2-10.0 ppm). Regions containing misleading information (e.g. solvents, urea cover a region for 4.5 up to 6.0 ppm) were excluded or merged (e.g. the region from 2.66 to 2.74 ppm serves as a value indicative for citrate) prior to analysis. To take account variations in urine concentration, all data-reduced spectra were normalised to a constant integrated intensity of 100 units.
Thereby widespread PCA (principal component analysis) is used for identifying significant patterns of signals and assigning these patterns to samples and groups of samples. PLS (projection to latent structures, partial least squares) is also used for finding significant patterns of signals, whereby in contrast to PCA the information of dose-groups is used for boosting the identification of significant changes. The assignment is performed with the help of an internal data base of metabolites, with the help of pathway mapping procedures (KEGG database) and with the help of a spectroscopic structure elucidation for unknown metabolites when feasible.

Data set [2] has as its system kidney and liver. The settings on record: rat, in vivo.
In data set [3] the test system is N-acetyl-felinine. Briefly: Determination of N-acetyl-felinine in rat urine by LC-MS. Format: in vivo, Sprague Dawley rats. The settings on record: for LC-MS signal for expected mass of N-acetyl felinine (m/z 248 in neg. mode): rat urine, 96 h after dosing. The method, then:
as §1, §2
LC-MS analysis of urine was performed using an Agilent 1100 HPLC system coupled to a Bruker Esquire 3000+ mass spectrometer equipped with an electrospray interface. Urine samples were diluted 4-fold with distilled water and 2 μl injections were made from a well plate maintained at 4° C. into a 150 mm×3.9 mm Waters Atlantis dC18 3 μm HPLC column maintained in an oven at 30° C. The column was eluted at a flow rate of 1 ml/min; mobile phase A consisted of 20 mM ammonium acetate, and mobile phase B of acetonitrile. […] The mass spectrometer was operated in negative mode with a dry gas flow of 81/min, nebulizer pressure of 27 psi and dry temperature of 330° C. The instrument was set to acquire over the mass range m/z 50-800. N-acetyl-felinine was found under this conditions at a retention time of 9.6 min with the expected m/z 248 (see FIG. 8) in samples of rats dosed with Zoledronate.

The subject of data set [4] is kidney and liver. Briefly: Histopathology of treated animals (kidney and liver toxicity).

Consider `CCCCCN(C)CCC(O)(P(=O)(O)O)P(=O)(O)O` [Ibandronate], for which, in the data set on N-acetyl-felinine [1], the “N-acetyl-felinine levels in urine” value is recorded as “undetectable”. In the data set on N-acetyl-felinine [1] (rat urine NMR, FIG. 3), the “Time course of bin 1.32 ppm (Methyl signals of N-Acetyl felinine) relative to creatinine” value is given as “no increase”. Also, in the data set with kidney and liver [2], the “kidney and liver toxicity in histopathology” value is “not so”. Besides, the “LC-MS signal for expected mass of N-acetyl felinine (m/z 248 in neg. mode)” value with N-acetyl-felinine [3] (3 mg/kg, FIG. 9) is reported as “No signal found”.
As for `O=P(O)(O)C(O)(Cn1ccnc1)P(=O)(O)O` [Zoledronate], in the data set with kidney and liver [4], the “kidney and liver toxicity in histopathology” value was “kidney and liver toxicity was observed”. In addition, the “N-acetyl-felinine in urine NMR spectra” value in the data set on N-acetyl-felinine [1] (1D NMR, signal at 1.32 ppm, FIG. 5) is “found”. The “NMR signal at 1.32 ppm in urine” value in the data set with N-acetyl-felinine [1] (96 h after dosing, FIG. 5) is “New signal at 1.32 ppm visible”. For the same compound, in the data set with N-acetyl-felinine [1], the “N-acetyl-felinine levels in urine” value is “high levels”. Also, the “N-acetyl-felinine in urine by LC-MS” value in the data set with N-acetyl-felinine [3] (negative mode, urine samples of dosed rats) is “found”. The “LC-MS signal for expected mass of N-acetyl felinine (m/z 248 in neg. mode)” value with N-acetyl-felinine [3] (6 mg/kg, FIG. 8) is “Strong signal found”.
